The source of these data is paper PMC8267945, “Plumbagin, a Natural Product with Potent Anticancer Activities, Binds to and Inhibits Dihydroorotase, a Key Enzyme in Pyrimidine Biosynthesis” (International Journal of Molecular Sciences, 2021).

SMILES strings stand for the structures.

The target of data set [1] is T1, huDHOase (Homo sapiens, UniProt P27708).
T1 construct: huDHOase1456-1846-NdeI-N; made in house; host or cells: E. coli BL21(DE3)
T1 sequence (P27708 1456-1846): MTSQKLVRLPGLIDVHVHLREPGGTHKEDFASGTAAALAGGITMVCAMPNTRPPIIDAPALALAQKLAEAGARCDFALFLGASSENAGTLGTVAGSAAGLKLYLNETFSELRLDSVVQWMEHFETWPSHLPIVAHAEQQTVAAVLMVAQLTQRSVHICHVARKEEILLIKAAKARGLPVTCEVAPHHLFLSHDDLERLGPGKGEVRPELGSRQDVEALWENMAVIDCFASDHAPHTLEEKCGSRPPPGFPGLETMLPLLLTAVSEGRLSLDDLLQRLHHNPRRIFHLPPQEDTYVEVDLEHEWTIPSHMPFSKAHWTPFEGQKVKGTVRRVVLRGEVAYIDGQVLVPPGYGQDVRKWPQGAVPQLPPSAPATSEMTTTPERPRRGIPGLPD
Put plainly: rapid spectrophotometric DHOase enzyme assay (hydrolysis of DHO). The class given is biochemical. The settings on record: 200 μM compound in the standard assay. As for the experimental part: A rapid spectrophotometric assay was used to determine the activity of DHOase. Briefly, the hydrolysis of DHO was measured at 25 °C as the decrease in absorbance at 230 nm. The purified DHOase was added to a 2 mL solution containing 0.5 mM DHO and 100 mM Tris–HCl at pH 8.0 to start the reaction. […] The hydrolysis of DHO was monitored using a UV/Vis spectrophotometer (Hitachi U 3300; Hitachi High-Technologies, Tokyo, Japan). A unit of activity was defined as the amount of enzyme catalyzing the hydrolysis of 1 μmol DHO/min, and the specific activity was expressed in terms of units of activity per mg of enzyme. The kinetic parameters Km and Vmax were determined from a nonlinear plot by fitting the hydrolyzing rate from individual experiments to the Michaelis–Menten equation (Enzyme Kinetics module of Sigma-Plot; Systat Software, Chicago, IL, USA).

Data set [2] has as its target T2, ScDHOase (Saccharomyces cerevisiae, UniProt P20051).
T2 construct: made in house; host or cells: E. coli BL21(DE3)
The description is as above. Type of data set: biochemical. The method, then:
PLU (50 μM) was included in the standard assay for analyzing the enzyme activity under different substrate concentrations. […] Data points are an average of three determinations within the 10% error.
(§1) A rapid spectrophotometric assay was used to determine the activity of DHOase. Briefly, the hydrolysis of DHO was measured at 25 °C as the decrease in absorbance at 230 nm. The purified DHOase was added to a 2 mL solution containing 0.5 mM DHO and 100 mM Tris–HCl at pH 8.0 to start the reaction. The extinction coefficient of DHO was 0.92 mM^−1·cm^−1 at 230 nm. The hydrolysis of DHO was monitored using a UV/Vis spectrophotometer (Hitachi U 3300; Hitachi High-Technologies, Tokyo, Japan). A unit of activity was defined as the amount of enzyme catalyzing the hydrolysis of 1 μmol DHO/min, and the specific activity was expressed in terms of units of activity per mg of enzyme. The kinetic parameters Km and Vmax were determined from a nonlinear plot by fitting the hydrolyzing rate from individual experiments to the Michaelis–Menten equation (Enzyme Kinetics module of Sigma-Plot; Systat Software, Chicago, IL, USA).

Data set [3] addresses DHPase. Set-up: method as in PMID 32147511. Conditions: cited from earlier work.
The subject of data set [4] is 4T1 cells. Description: wound-healing assay. Type of data set: cell-based, mouse. The method, then: The wound-healing assay was performed to study whether PLU can inhibit 4T1 cell migration. Briefly, 4T1 cells were seeded in 24-well plates, incubated in serum-reduced medium for 6 h, wounded in a line across the well with a 200 μL pipette tip, and washed twice with the serum-reduced medium. After different treatments, cells were incubated for 24 h to allow migration.

The subject of data set [5] is 4T1 cells. Put plainly: clonogenic formation assay. The class given is cell-based, mouse. The method, then:
A clonogenic formation assay was used to assess the 4T1 cell growth to study whether the PLU can inhibit 4T1 cell proliferation. Briefly, 4T1 cells were seeded at a density of 10^3 cells per well into 6-well plates and incubated overnight for attachment. After different treatments, plates were incubated for 5–7 days to allow clonogenic growth. After washing with PBS, colonies were fixed with methanol and stained with 0.5% crystal violet for 20 min, and the number of colonies was counted under a light microscope.

For data set [6], the target named is T3, KpDHOase (Klebsiella pneumoniae subsp. pneumoniae, UniProt A6T7D6).
T3 construct: made in house; host or cells: E. coli BL21(DE3)
T3 sequence (A6T7D6 whole entry): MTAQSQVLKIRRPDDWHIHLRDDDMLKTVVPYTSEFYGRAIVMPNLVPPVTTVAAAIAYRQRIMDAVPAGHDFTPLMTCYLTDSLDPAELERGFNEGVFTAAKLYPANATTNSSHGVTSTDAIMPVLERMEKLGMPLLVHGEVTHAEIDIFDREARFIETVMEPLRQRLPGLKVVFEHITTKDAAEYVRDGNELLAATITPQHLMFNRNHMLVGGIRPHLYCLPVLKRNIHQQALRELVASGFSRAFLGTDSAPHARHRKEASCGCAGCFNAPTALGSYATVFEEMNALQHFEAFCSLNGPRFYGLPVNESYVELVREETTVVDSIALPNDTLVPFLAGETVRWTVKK
Put plainly: rapid spectrophotometric DHOase enzyme assay (hydrolysis of DHO). The class given is biochemical, Klebsiella pneumonia. The settings on record: PLU 200 μM. The method, then: as §1

For data set [7], the system named is tumor growth. Conditions: cited from earlier work.
Data set [8] deals with 4T1 cells. Put plainly: in vitro. Type of data set: cell-based, mouse. The settings on record: 10 μM PLU, 24 h, 4T1 cells. As for the experimental part: (§2) The 4T1 cells (1 × 10^4) were incubated with PLU in a 100 μL volume. After 24 h, the anticancer potentiality was estimated.
Data set [9] can be described thus: in vitro. Type of data set: cell-based, mouse. The settings on record: mouse; PLU 2 μM, 4T1 cells; read-out: Death rate (cell mortality). As for the experimental part:
as §2

Data set [10] has as its system 4T1 cells. Put plainly: chromatin condensation assay (Hoechst staining). Type of data set: cell-based, mouse. The method, then: The apoptosis in 4T1 cells was assayed with Hoechst 33342 staining. The 4T1 cells were seeded in 6-well plates at a density of 5 × 10^5 cells per well in a volume of […] of culture medium. Cells were allowed to adhere for 16 h. After different treatments, cells were incubated for an additional 24 h, washed with PBS, stained with the Hoechst dye (1 μg·mL^−1) in the dark at RT for 10 min, and imaged using an inverted fluorescence microscope (Axiovert 200 M; Zeiss Axioplam, Oberkochen, Germany) at excitation and emission wavelengths (λem) of 360 and 460 nm, respectively. The apoptotic index was calculated as follows: apoptotic index = apoptotic cell number/(apoptotic cell number + nonapoptotic cell number).

T2 sequence (P20051 whole entry): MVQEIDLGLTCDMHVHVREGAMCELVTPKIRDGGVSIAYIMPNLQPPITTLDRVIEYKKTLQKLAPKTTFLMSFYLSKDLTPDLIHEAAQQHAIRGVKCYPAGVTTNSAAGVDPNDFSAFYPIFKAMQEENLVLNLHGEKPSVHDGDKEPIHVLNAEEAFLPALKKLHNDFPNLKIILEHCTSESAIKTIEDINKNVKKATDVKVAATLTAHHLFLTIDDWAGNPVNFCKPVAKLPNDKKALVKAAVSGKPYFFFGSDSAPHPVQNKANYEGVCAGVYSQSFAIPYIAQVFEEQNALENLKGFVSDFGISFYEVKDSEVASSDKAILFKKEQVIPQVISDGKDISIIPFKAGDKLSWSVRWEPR

Usually IC50 stands for the concentration at which inhibition is half-maximal. For orientation: mortality means the percentage killed. On to `CC1=CC(=O)c2c(O)cccc2C1=O` [PLU, plumbagin], for which the “decrease of the activity of huDHOase” value in [1] is listed as 30%. The “inhibition type (Lineweaver–Burk plot)” value in data set [2] (PLU 50 μM, different substrate concentrations) was “competitive inhibitor”. In addition, in data set [2] (PLU 50 μM, without PLU 69.9 ± 1.0), the “Vmax of ScDHOase in the presence of PLU” value turned out to be 64.1 ± 2.8 µmol/mg/min. In [2] (PLU 200 μM), the “decrease of the activity of ScDHOase” value was found to be 66%. Also, in [3], the IC50 was 58 µM. For the same compound, the inhibition at 10 µM in [4] (Mus musculus, 10 μM PLU, 24 h, read-out: inhibition of cell migration) was found to be 97%. This compound also returned a Migration rate in [4] (PLU 2 μM) of 84%. Also, the Colony count in data set [5] (PLU 2 μM) worked out at 73%. In data set [5] (pretreatment with 10 μM PLU), the “suppression of proliferation and colony formation” value was 98%. The “decrease of the activity of KpDHOase” value in data set [6] amounted to 69%. The “tumor growth in PLU-treated mice” value in data set [7] (animal models) is on record as “significant reduction in tumor growth”. Besides, the “side effects in PLU-treated mice” value in data set [7] (mouse, in vivo) is reported as “no side effects”. In data set [8], the cell deaths is listed as 100%. For the same compound, the mortality at 24 h, 2 μM in data set [9] is 8%. Besides, the “apoptosis with DNA fragmentation” value in data set [10] (10 μM PLU) is 100%. The Apoptotic rate in data set [10] (PLU 2 μM) was 8%.
